Assay results as given in the supplement of paper PMC11208160.

experiment: recombinant UMI read abundance after kanamycin selection (control-corrected) (log10(CPM+1)); higher = more efficient recombination; extreme values may be limits of the assay; sequences stand for … in AGTGCAGAGAAAATCGGCCAGTTTTCTCTGCCTGCAGTCCGCATGCCGTGGGACCCCTTGGGTTCTAACCTGTTGCCTAGATTTATGCAGCGGACTGCCTTTCTCCCAAAGTGATAAACCGG…AGGTTGGTTTCACT; site = the 11-nt donor
Method: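 Pooled E. coli donor-specificity screen for the IS621 bridge recombinase. Each library member carries a reprogrammed 11-nt donor and a full-length LE bridge RNA expressed in cis from the natural promoter, with a paired donor-binding loop (8-nt LDG + 4-nt RDG) and a target-binding loop fixed to T5. It is co-electroporated with a T5 target plasmid; recombinase is induced with 0.07 mM IPTG and recombinants are selected on kanamycin. UMIs are counted as CPM, averaged over two biological replicates and corrected by the unselected control. Molecule = full bridge RNA written as DNA, built from the T5 scaffold: LDG = donor specificity nt 1-8, RDG = reverse complement of nt 8-11.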
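Also: IS621 bridge recombinase in Escherichia coli cells against a fixed T5 target plasmid.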

Going from “AGCGTAGCATGGACCGGTTTTCCCGGTAATCCGTATTTGTT (site AGCTTAGCTAA)” to “AGCGTGACATGGACCGGTTTTCCCGGTAATCCGTATTTGCC (site AGCGTGACTGG)”, the “recombinant UMI read abundance (log10)” value rises from 0.00472 to 1.78.

First: AGCGTTACATGGACCGGTTTTCCCGGTAATCCGTATTTGTA (site AGCGTTACTTA)
Second: AGCTCAACATGGACCGGTTTTCCCGGTAATCCGTATTTGGG (site AGCTCAACTCC)
The “recombinant UMI read abundance (log10)” value of the first is higher: 0.651 for the first, 0 for the second.

“AGCTCAACATGGACCGGTTTTCCCGGTAATCCGTATTTGGG (site AGCTCACCTCC)” and “AGCTCAACATGGACCGGTTTTCCCGGTAATCCGTATTTGGG (site AGCTCAGCTCC)” are the same in “recombinant UMI read abundance (log10)” value: 0 for the first, 0 for the second.

First: AGCTCAACATGGACCGGTTTTCCCGGTAATCCGTATTTGGG (site AGCTCATCTCC)
Second: AGCTCAGCATGGACCGGTTTTCCCGGTAATCCGTATTTGGC (site AGCTCAGCTAC)
The “recombinant UMI read abundance (log10)” value of the first is lower: 0 for the first, 0.396 for the second.

First: AGCTCAGCATGGACCGGTTTTCCCGGTAATCCGTATTTGGC (site AGCTCAGCTCC)
Second: AGCTCAGCATGGACCGGTTTTCCCGGTAATCCGTATTTGGC (site AGCTCAGCTGC)
The “recombinant UMI read abundance (log10)” value of the first is lower: 0.00906 for the first, 2.19 for the second.

Compared with “AGCTCAGCATGGACCGGTTTTCCCGGTAATCCGTATTTGGC (site AGCTCAGCTTC)”, “AGCTCAGCATGGACCGGTTTTCCCGGTAATCCGTATTTGGG (site AACTCAGCTCC)” is lower in “recombinant UMI read abundance (log10)” value: 0.398 for the first, 0 for the second.

“AGCTCAGCATGGACCGGTTTTCCCGGTAATCCGTATTTGGG (site ACCTCAGCTCC)” and “AGCTCAGCATGGACCGGTTTTCCCGGTAATCCGTATTTGGG (site AGATCAGCTCC)” are within 0.2 log units of each other in “recombinant UMI read abundance (log10)” value: 0.026 for the first, 0.0131 for the second.

“AGCTCAGCATGGACCGGTTTTCCCGGTAATCCGTATTTGGG (site AGCACAGCTCC)” and “AGCTCAGCATGGACCGGTTTTCCCGGTAATCCGTATTTGGG (site AGCCCAGCTCC)” are within 0.2 log units of each other in “recombinant UMI read abundance (log10)” value: 0.212 for the first, 0.263 for the second.

“AGCTCAGCATGGACCGGTTTTCCCGGTAATCCGTATTTGGG (site AGCGCAGCTCC)” and “AGCTCAGCATGGACCGGTTTTCCCGGTAATCCGTATTTGGG (site AGCTAAGCTCC)” are within 0.2 log units of each other in “recombinant UMI read abundance (log10)” value: 0.0219 for the first, 0.0351 for the second.

“AGCTCAGCATGGACCGGTTTTCCCGGTAATCCGTATTTGGG (site AGCTCAACTCC)” and “AGCTCAGCATGGACCGGTTTTCCCGGTAATCCGTATTTGGG (site AGCTCACCTCC)” are within 0.2 log units of each other in “recombinant UMI read abundance (log10)” value: 0 for the first, 0.00337 for the second.

“AGCTCAGCATGGACCGGTTTTCCCGGTAATCCGTATTTGGG (site AGCTCAGCTAC)” and “AGCTCAGCATGGACCGGTTTTCCCGGTAATCCGTATTTGGG (site AGCTCAGCTCA)” are within 0.2 log units of each other in “recombinant UMI read abundance (log10)” value: 0.00707 for the first, 0.0167 for the second.

“AGCTCAGCATGGACCGGTTTTCCCGGTAATCCGTATTTGGG (site AGCTCAGCTCC)” and “AGCTCAGCATGGACCGGTTTTCCCGGTAATCCGTATTTGGG (site AGCTCAGCTCG)” are within 0.2 log units of each other in “recombinant UMI read abundance (log10)” value: 0.0108 for the first, 0.0246 for the second.

Going from “AGCTCAGCATGGACCGGTTTTCCCGGTAATCCGTATTTGGG (site AGCTCAGCTCT)” to “AGCTCAGCATGGACCGGTTTTCCCGGTAATCCGTATTTGGG (site AGCTCAGCTGC)”, the “recombinant UMI read abundance (log10)” value falls from 0.337 to 0.

“AGCTCAGCATGGACCGGTTTTCCCGGTAATCCGTATTTGGG (site AGCTCAGCTTC)” and “AGCTCAGCATGGACCGGTTTTCCCGGTAATCCGTATTTGGG (site AGCTCATCTCC)” are within 0.2 log units of each other in “recombinant UMI read abundance (log10)” value: 0.0127 for the first, 0.0384 for the second.

“AGCTCAGCATGGACCGGTTTTCCCGGTAATCCGTATTTGGG (site AGCTCCGCTCC)” and “AGCTCAGCATGGACCGGTTTTCCCGGTAATCCGTATTTGGG (site AGCTCGGCTCC)” are within 0.2 log units of each other in “recombinant UMI read abundance (log10)” value: 0.0147 for the first, 0.0329 for the second.

“AGCTCAGCATGGACCGGTTTTCCCGGTAATCCGTATTTGGG (site AGCTCTGCTCC)” and “AGCTCAGCATGGACCGGTTTTCCCGGTAATCCGTATTTGGG (site AGCTGAGCTCC)” are within 0.2 log units of each other in “recombinant UMI read abundance (log10)” value: 0.0255 for the first, 0 for the second.

“AGCTCAGCATGGACCGGTTTTCCCGGTAATCCGTATTTGGG (site AGCTTAGCTCC)” and “AGCTCAGCATGGACCGGTTTTCCCGGTAATCCGTATTTGGG (site AGGTCAGCTCC)” are within 0.2 log units of each other in “recombinant UMI read abundance (log10)” value: 0.0288 for the first, 0.00833 for the second.

“AGCTCAGCATGGACCGGTTTTCCCGGTAATCCGTATTTGGG (site AGTTCAGCTCC)” and “AGCTCAGCATGGACCGGTTTTCCCGGTAATCCGTATTTGGG (site ATCTCAGCTCC)” are within 0.2 log units of each other in “recombinant UMI read abundance (log10)” value: 0.0207 for the first, 0.019 for the second.

Compared with “AGCTCAGCATGGACCGGTTTTCCCGGTAATCCGTATTTGGG (site CGCTCAGCTCC)”, “AGCTCAGCATGGACCGGTTTTCCCGGTAATCCGTATTTGGG (site GGCTCAGCTCC)” is lower in “recombinant UMI read abundance (log10)” value: 0.299 for the first, 0.0255 for the second.

Compared with “AGCTCAGCATGGACCGGTTTTCCCGGTAATCCGTATTTGGG (site TGCTCAGCTCC)”, “AGCTCAGCATGGACCGGTTTTCCCGGTAATCCGTATTTGGT (site AGCTCAGCTAC)” is higher in “recombinant UMI read abundance (log10)” value: 0.366 for the first, 1.27 for the second.

“AGCTCAGCATGGACCGGTTTTCCCGGTAATCCGTATTTGGT (site AGCTCAGCTCC)” and “AGCTCAGCATGGACCGGTTTTCCCGGTAATCCGTATTTGGT (site AGCTCAGCTGC)” are within 0.2 log units of each other in “recombinant UMI read abundance (log10)” value: 0.0126 for the first, 0 for the second.

“AGCTCAGCATGGACCGGTTTTCCCGGTAATCCGTATTTGGT (site AGCTCAGCTTC)” and “AGCTCCGCATGGACCGGTTTTCCCGGTAATCCGTATTTGGG (site AGCTCAGCTCC)” are within 0.2 log units of each other in “recombinant UMI read abundance (log10)” value: 0.0112 for the first, 0.00775 for the second.

“AGCTCCGCATGGACCGGTTTTCCCGGTAATCCGTATTTGGG (site AGCTCCGCTCC)” and “AGCTCCGCATGGACCGGTTTTCCCGGTAATCCGTATTTGGG (site AGCTCGGCTCC)” are within 0.2 log units of each other in “recombinant UMI read abundance (log10)” value: 0.211 for the first, 0.0125 for the second.

First: AGCTCCGCATGGACCGGTTTTCCCGGTAATCCGTATTTGGG (site AGCTCTGCTCC)
Second: AGCTGGGCATGGACCGGTTTTCCCGGTAATCCGTATTTGTA (site AGCTGGGCTTA)
The “recombinant UMI read abundance (log10)” value of the first is lower: 0.00972 for the first, 2.76 for the second.

“AGCTTAGCATGGACCGGTTTTCCCGGTAATCCGTATTTGCC (site AGCTTAGCTGG)” and “AGCTTCCCATGGACCGGTTTTCCCGGTAATCCGTATTTGTG (site AGATTCCCTCA)” are within 0.2 log units of each other in “recombinant UMI read abundance (log10)” value: 0 for the first, 0.114 for the second.

“AGCTTCCCATGGACCGGTTTTCCCGGTAATCCGTATTTGTG (site AGCTTCCCTCA)” and “AGCTTCCCATGGACCGGTTTTCCCGGTAATCCGTATTTGTG (site AGGTTCCCTCA)” are within 0.2 log units of each other in “recombinant UMI read abundance (log10)” value: 0.00566 for the first, 0.00784 for the second.

“AGCTTCCCATGGACCGGTTTTCCCGGTAATCCGTATTTGTG (site AGTTTCCCTCA)” and “AGCTTTCCATGGACCGGTTTTCCCGGTAATCCGTATTTGGA (site AGCTTTCCTTC)” are within 0.2 log units of each other in “recombinant UMI read abundance (log10)” value: 0.0209 for the first, 0.00277 for the second.

Going from “AGGAAAACATGGACCGGTTTTCCCGGTAATCCGTATTTGCA (site AGGAAAACTTG)” to “AGGAAAACATGGACCGGTTTTCCCGGTAATCCGTATTTGCA (site AGGAACACTTG)”, the “recombinant UMI read abundance (log10)” value falls from 0.959 to 0.

“AGGAAAACATGGACCGGTTTTCCCGGTAATCCGTATTTGCA (site AGGAAGACTTG)” and “AGGAAAACATGGACCGGTTTTCCCGGTAATCCGTATTTGCA (site AGGAATACTTG)” are the same in “recombinant UMI read abundance (log10)” value: 0 for the first, 0 for the second.

First: AGGAAAACATGGACCGGTTTTCCCGGTAATCCGTATTTGTA (site AGGAAAACTTA)
Second: AGGAAAACATGGACCGGTTTTCCCGGTAATCCGTATTTGTA (site AGGAAGACTTG)
The “recombinant UMI read abundance (log10)” value of the first is higher: 1.92 for the first, 0 for the second.

Going from “AGGAACACATGGACCGGTTTTCCCGGTAATCCGTATTTGCA (site AGGAAAACTTG)” to “AGGAACACATGGACCGGTTTTCCCGGTAATCCGTATTTGCA (site AGGAACACTTG)”, the “recombinant UMI read abundance (log10)” value rises from 0 to 2.52.

Going from “AGGAACACATGGACCGGTTTTCCCGGTAATCCGTATTTGCA (site AGGAAGACTTG)” to “AGGAACACATGGACCGGTTTTCCCGGTAATCCGTATTTGCA (site AGGAATACTTG)”, the “recombinant UMI read abundance (log10)” value rises from 0 to 0.211.

Going from “AGGAAGGCATGGACCGGTTTTCCCGGTAATCCGTATTTGCT (site AGAAAGGCTAG)” to “AGGAAGGCATGGACCGGTTTTCCCGGTAATCCGTATTTGCT (site AGCAAGGCTAG)”, the “recombinant UMI read abundance (log10)” value falls from 2.69 to 0.362.

Compared with “AGGAAGGCATGGACCGGTTTTCCCGGTAATCCGTATTTGCT (site AGGAAGACTTG)”, “AGGAAGGCATGGACCGGTTTTCCCGGTAATCCGTATTTGCT (site AGGAAGGCTAG)” is higher in “recombinant UMI read abundance (log10)” value: 0.296 for the first, 2.27 for the second.

Going from “AGGAAGGCATGGACCGGTTTTCCCGGTAATCCGTATTTGCT (site AGTAAGGCTAG)” to “AGGAAGGCATGGACCGGTTTTCCCGGTAATCCGTATTTGGA (site AGGAAGACTTG)”, the “recombinant UMI read abundance (log10)” value falls from 1.3 to 0.224.

Going from “AGGAAGGCATGGACCGGTTTTCCCGGTAATCCGTATTTGGA (site AGGAAGGCTTC)” to “AGGAAGTCATGGACCGGTTTTCCCGGTAATCCGTATTTGCA (site AGGAAGACTTG)”, the “recombinant UMI read abundance (log10)” value falls from 1.73 to 0.839.
